Test results taken from ChEMBL document CHEMBL4229401, “Synthesis and evaluation of a ring-constrained Hsp90 C-terminal inhibitor that exhibits neuroprotective activity” (Bioorg Med Chem Lett, 2018).
Activity calls are given as the source filed them. The calls are words filed in the database; no cut-off is given here.

What was measured:
Rattus norvegicus [1] = species: Rattus norvegicus; assay: Inhibition of C-terminal Hsp90 in rat 50B11 cells assessed as increase in Hsp70 expression at 0.1 to 1 uM after 24 hrs by Western blot analysis; assay type: cell-based
Rattus norvegicus [2] = species: Rattus norvegicus; assay: Neuroprotective activity against H2O2-induced mitochondrial dysfunction in rat 50B11 cells assessed as improvement in mitochondrial biogenesis by measuring increase in maximal respiratory capacity pretreated for 24 hrs followed by H2O2 challenge and measured after 2 hrs; assay type: functional, cell-based

| Compound | inhibition (Rattus norvegicus [1]) | Activity (Rattus norvegicus [2]) |
| --- | --- | --- |
| CO[C@@H]1[C@@H](O)[C@@H](O)[C@H](Oc2ccc(CCNC(C)=O)c(-c3cccc(F)c3)c2)OC1(C)C | Active | Dose-dependent effect |
| CO[C@@H]1[C@@H](O)[C@@H](O)[C@H](Oc2ccc(CCNC(C)=O)c3c4cccc(F)c4c(=O)n(C)c23)OC1(C)C | Active | Dose-dependent effect |
